In brackets after ≈: the same amount, converted by molar mass.
How the values were obtained:
[1] = Bocillin-FL fluorescence polarization competition binding assay, A. baumannii PBP3; conditions: fluorescence polarization competition binding assay using Bocillin-FL; column 3; read-out: 4. baumannii PBP1a Potency
Description: Example I: Experimental Method for Penicillin-Binding Protein Binding Assays with Bocillin-FL Via Fluorescence Polarization
To determine the ability of boronic acid-based test PBP inhibitors to bind Penicillin Binding Proteins (PBPs), Bocillin-FL (fluorescently-labeled penicillin V; ThermoFisher Scientific) was used in a fluorescence polarization (FP) competition binding assay to assess inhibitor binding to PBP2, PBP3 or PBP4 from Escherichia coli (K12), PBP3 from Pseudomonas aeruginosa (PA01), PBP1a, PBP2 and PBP3 from Acinetobacter baumannii (ATCC 19606), and PBP2 from Neiserria gonorrheae (FA19). PBPs were cloned and purified as described previously (E. coli PBPs, King, D. T, et al., ACS Infectious Diseases 2015, 1, 175-184; P. aeruginosa PBP3, Han et. al., PNAS 2010, 107 (51), 22002-22007; A. baumannii PBPs, Penwell et. al., Antimicrob. Agents Chemother. 2015, 59 (3), 1680-1689; N. gonorrhoeae PBP2, Singh et. al., J Biol. Chem. 2019, 294 (38), 14020-14032). To establish assay conditions for competition binding, enzyme titration/saturation binding experiments were initially performed. Bocillin-FL was prepared at 0.2 μM in a buffer comprised of 50 mM Hepes (pH 8.0), 300 mM NaCl and 5% (v/v) glycerol for reactions with E. coli, P. aeruginosa and N. gonorrhoeae PBPs, and 25 mM Tris (pH 8.0), 200 mM NaCl and 10% (v/v) glycerol and 0.005% (v/v) Tween 20 for reactions with A. baumannii PBPs. Saturation binding was performed by mixing 40 μl of PBP solutions ranging in concentrations from 0-24 μM with 40 μl of the 0.2 μM Bocillin-FL solution, in individual wells of a black 384-well microplate. FP was measured immediately upon mixing (Excitation, 490 nm; Emission, 520 nm; g-factor, 0.96), using a Cytation3 (BioTek) microplate reader and measured continuously for up to 120 minutes. […] The competition binding assay (80 μl final volume) was validated using beta-lactams and PBPs at final concentrations of: 1.5 μM, E. coli PBP3; 0.75 μM, P. aeruginosa PBP3; 1 μM A. baumannii PBP1a; 2.5 μM A. baumannii PBP2; 0.2 μM A. baumannii PBP3; and […] N. gonorrhoeae PBP2. Bocillin-FL was at 0.1 μM (0.05 μM with A. baumannii PBP1a) and beta-lactam concentrations ranged from 0-1000 μM. […] Bocillin-FL was added and the FP immediately measured for up to 60 minutes (90 minutes for E. coli PBP2). […] The beta-lactam potency was reported as the concentration of beta-lactam required to reduce the amount of PBP bound-Bocillin-FL by 50% (EC50). […] Binding assays for boronic acid PBP inhibitors were performed in an identical fashion for the respective PBPs

[2] = tested on: A. baumannii ATCC 17978; experiment: Broth microdilution MIC in iron-depleted CAMHB (IDM); format: cell-based; conditions: Acinetobacter baumannii, ATCC17978, read-out: Minimum Inhibitory Concentration, ATCC 17978
Description: (§1) Example IV: In Vitro Antibacterial Assays in Iron-Depleted Cation-Adjusted Mueller-Hinton Broth
(§2) To determine the ability of test compounds to inhibit the growth bacterial strains under conditions of iron-depletion, classic cell based broth microdilution minimum inhibitory concentration (MIC) assays were employed. MIC assays are performed according to CLSI methods except where otherwise noted (CLSI, 2018 and CLSI, 2019). The reference type strain E. coli ATCC 25922 was used to determine the ability of the PBP inhibitors to inhibit the growth of Enterobacteriaceae. Wild-type P. aeruginosa ATCC 27853, A. baumannii ATCC 17978 and A. baumannii ATCC 19606, along with the hyper-permeable P. aeruginosa ATCC 35151, an engineered efflux pump-compromised strain of P. aeruginosa (ΔmexAB-oprM), and an engineered efflux-pump compromised strain of A. baumannii IL123 (ABΔ3-ARAEcPore) were used to determine the ability of PBP inhibitors to penetrate the outer membrane of P. aeruginosa and A. baumannii and assess antibacterial activity against these important gram-negative organisms.
(§3) Briefly, cryo-preserved bacterial cultures of challenge strains are streaked for isolation on appropriate agar medium, in this case cation-adjusted Mueller Hinton agar. Following incubation to allow growth of the colonies, plates are sealed with parafilm and stored refrigerated for up to two weeks. For preparation of assay inoculum and to ensure low variability, at least 5 colonies are picked from the agar plates with an inoculating loop and aseptically transferred to a culture tube containing 3 mL of iron-depleted cation-adjusted Mueller Hinton broth (IDM)—see below for IDM preparation. The broth culture is grown for 3-5 hours at 37° C. with shaking at 200 rpm. Meanwhile, 2-fold serial dilutions of test compounds are conducted in a 96-well plate with a final volume of 75 μL per well at 2-fold the final desired concentration. After the dilution plates are set up the growing cultures are then diluted in a cuvette containing IDM and the optical density is measured at 600 nm. The inoculum is diluted such that 75 μL of this culture in IDM results in a starting bacterial concentration of 2-8×10^5 CFU/mL when added to the dilution plates. The plates are incubated for 16-20 hours for Enterobacteriaceae and Pseudomonas and 20-24 hours for Acinetobacter at 37° C. The MIC values are read visually as the lowest concentration well with no bacterial growth.
(§4) Method for Iron-Depleted Cation-Adjusted Mueller Hinton Broth (IDM) Preparation:
(§5) • Prepare cation-adjusted Mueller Hinton broth as per the manufacturer's recommendations and autoclave. • Add 100 g/L Chelex 100 resin, cover with foil and incubate with stirring for 2 hours • Remove Chelex 100 resin by filtration with 0.45 μm filter flask • Add the following back to the medium: • CaCl2 dihydrate: 82.5 mg/L • MgCl2 hexahydrate: 94.1 mg/L • ZnSO4: 10 μM • Adjust pH of medium to 7.3 with 5 N HCl • Sterilize using a 0.22 µm filter flask

[3] = tested on: A. baumannii ATCC 19606; experiment: as above; format: cell-based; conditions: Acinetobacter baumannii, ATCC19606, read-out: Minimum Inhibitory Concentration, ATCC 19606
Description: as §1, §2, §3, §4, §5

[4] = tested on: A. baumannii CDC-0033 producing NDM-1, and OXA-94; experiment: as above; format: cell-based; conditions: Acinetobacter baumannii, read-out: Minimum Inhibitory Concentration, CDC-0033
Description: as §1, §2, §3, §4, §5

[5] = tested on: A. baumannii CDC-0036 OXA-65, and OXA-24; experiment: as above; format: cell-based; conditions: Acinetobacter baumannii, read-out: Minimum Inhibitory Concentration, CDC-0036
Description: as §1, §2, §3, §4, §5

[6] = tested on: A. baumannii CDC-0083 producing NDM-1, PER-7, OXA-23, and OXA-69; experiment: as above; format: cell-based; conditions: Acinetobacter baumannii, read-out: Minimum Inhibitory Concentration, CDC-0083
Description: as §1, §2, §3, §4, §5

[7] = tested on: P. aeruginosa (ΔmexAB-oprM); experiment: as above; format: cell-based; conditions: Pseudomonas aeruginosa, read-out: Minimum Inhibitory Concentration, P. aeruginosa ΔmexAB-OprM
Description: as §1, §2, §3, §4, §5

[8] = tested on: P. aeruginosa ATCC 27853; experiment: as above; format: cell-based; conditions: Pseudomonas aeruginosa, ATCC27853, read-out: Minimum Inhibitory Concentration, P. aeruginosa ATCC 27853
Description: as §1, §2, §3, §4, §5

[9] = tested on: P. aeruginosa ATCC 35151; experiment: as above; format: cell-based; conditions: Pseudomonas aeruginosa, ATCC35151; iron-depleted MHB (IDM); hyper-permeable strain; read-out: Minimum Inhibitory Concentration, P. aeruginosa ATCC 35151
Description: as §1, §2, §3, §4, §5

[10] = tested on: P. aeruginosa CDC-0054 producing VIM-4, OXA-50, and PAO; experiment: as above; format: cell-based; conditions: Pseudomonas aeruginosa, read-out: Minimum Inhibitory Concentration, P. aeruginosa CDC-0054
Description: as §1, §2, §3, §4, §5

[11] = tested on: P. aeruginosa CDC-0095 producing OXA-50, and PAO; experiment: as above; format: cell-based; conditions: Pseudomonas aeruginosa, read-out: Minimum Inhibitory Concentration, P. aeruginosa CDC-0095
Description: as §1, §2, §3, §4, §5

[12] = tested on: A. baumannii CDC-0045 producing TEM-1D, OXA-23, and OXA-69; experiment: as above; format: cell-based; conditions: Acinetobacter baumannii, read-out: Minimum Inhibitory Concentration, CDC-0045
[13] = tested on: P. aeruginosa CDC-0110; experiment: as above; format: cell-based; conditions: Pseudomonas aeruginosa, CDC0110, read-out: Minimum Inhibitory Concentration, P. aeruginosa CDC-0110
Description: as §2, §3, §4, §5

With NCCCN1CCN(C(=O)N[C@@H](C(=O)N[C@H]2Cc3ccc(F)c(C(=O)O)c3OB2O)c2c(F)c(F)c(O)c(O)c2Cl)C(=O)C1=O [Example 227, (R)-3-((R)-2-(4-(3-aminopropyl)-2,3-dioxopiperazine-1-carboxamido)-2-(2-chloro-5,6-difluoro-3,4-dihydroxyphenyl)acetamido)-7-fluoro-2-hydroxy-3,4-dihydro-2H-benzo[e][1,2]oxaborinine-8-carboxylic acid] the EC50 [1] was greater than 100 µM, the MIC [2] was 0.25 µg/mL (≈ 0.38 µM) and the MIC [3] was 0.25 µg/mL (≈ 0.38 µM). It also gave an MIC [4] of 8 to 16 µg/mL (≈ 12.2 to 24.3 µM), an MIC [5] of 2 to 4 µg/mL (≈ 3.04 to 6.08 µM) and an MIC [6] of 2 to 4 µg/mL (≈ 3.04 to 6.08 µM). For the same compound, the MIC [7] was 0.25 µg/mL (≈ 0.38 µM), the MIC [8] was 0.5 to 1 µg/mL (≈ 0.76 to 1.52 µM) and the MIC [9] was 0.25 µg/mL (≈ 0.38 µM). For the same compound, the MIC [10] was 0.5 to 1 µg/mL (≈ 0.76 to 1.52 µM), the MIC [11] was 2 to 4 µg/mL (≈ 3.04 to 6.08 µM) and the MIC [12] was 2 to 4 µg/mL (≈ 3.04 to 6.08 µM). The MIC [13] was 0.25 µg/mL (≈ 0.38 µM).
CS(=O)(=O)N1CCN(C(=O)N[C@@H](C(=O)N[C@H]2Cc3ccc(F)c(C(=O)O)c3OB2O)c2c(F)c(F)c(O)c(O)c2Cl)C1=O [Example 229, (R)-3-((R)-2-(2-chloro-5,6-difluoro-3,4-dihydroxyphenyl)-2-(3-(methylsulfonyl)-2-oxoimidazolidine-1-carboxamido)acetamido)-7-fluoro-2-hydroxy-3,4-dihydro-2H-benzo[e][1,2]oxaborinine-8-carboxylic acid] showed an EC50 [1] of 10 to 30 µM, an MIC [2] of 0.25 µg/mL (≈ 0.384 µM) and an MIC [3] of 0.5 to 1 µg/mL (≈ 0.768 to 1.54 µM). For the same compound, the MIC [4] was 2 to 4 µg/mL (≈ 3.07 to 6.15 µM), the MIC [5] was 2 to 4 µg/mL (≈ 3.07 to 6.15 µM) and the MIC [6] was 2 to 4 µg/mL (≈ 3.07 to 6.15 µM). It also gave an MIC [7] of 0.25 µg/mL (≈ 0.384 µM), an MIC [8] of 0.5 to 1 µg/mL (≈ 0.768 to 1.54 µM) and an MIC [9] of 0.25 µg/mL (≈ 0.384 µM). The MIC [10] was 2 to 4 µg/mL (≈ 3.07 to 6.15 µM), the MIC [12] was 8 to 16 µg/mL (≈ 12.3 to 24.6 µM) and the MIC [13] was 0.5 to 1 µg/mL (≈ 0.768 to 1.54 µM).
